# In US10898475B2, “Bach1 inhibitors in combination with Nrf2 activators and pharmaceutical compositions thereof” (vTv Therapeutics LLC, priority 2014, dated 2021):
# System: HMOX1 in Normal Human Lung Fibroblasts (NHLF)
# Experiment: HMOX1 Protein Expression (immunostaining, fold induction or % positive cells over DMSO)
# Conditions: for Hill slope of DMF dose response curves in Table 2: % Positive HMOX; for combination effect in terms of the % HMOX positive cells: combination with DMF at concentrations below their maximum effect (Table 2); for change of Hill slope of the DMF dose response curve (FIG. 5): upon increasing amounts of the Bach1 Inhibitor
# Description: Normal Human Lung Fibroblasts (NHLF) obtained from Lonza were cultured in T-225 flasks using conditions recommended by the vendor (FGM-2 medium supplemented with 2% fetal bovine serum (FBS), fibroblast growth factor (hFGF-B) 0.5 mL, insulin 0.5 mL, and gentamicin/amphotericin-B 0.5 mL at 37° C. in a humidified atmosphere of 5% CO2).
# For assays, cell were thawed and placed into culture in T225 flasks, grown to be 80% confluent, and harvested as described by the vendor. NHLF cells (2.5×10^4 cells per well) were plated in 384 well optilux tissue culture (BD) plates and incubated overnight in media prior to exposure to compound. Cells were incubated with DMSO or various combinations of either an Nrf2 Activator (DMF (dimethyl fumarate)/CDDO-Me) or a Bach1 Inhibitor for 16-18 hr. Cells were then fixed and permeabilized prior to incubation with HMOX1 antibody (abcam; 1:300 dilution in 1% BSA in PBS) for 1 hour. Cells were then washed and incubated with a solution of fluorescently-coupled goat anti-mouse antibody (Alexa 488 1:400 dilution Invitrogen) and Hoechst nuclear stain (1:2000; Invitrogen) in PBS containing 1% BSA for 1 hr. Immunostaining was detected using a GE InCell 2000 instrument at the following wavelengths: Hoechst Ex/Em 360/535 and Alexa 488 Ex/Em 480/535. Results were analyzed using GE InCell Analyzer software and represented as the increase fold of HMOX1 induction (Fold induction/FI) or the percentage of HMOX1 positive (% positive) cells over DMSO.
smiles,measurement,setting,value
"Cn1c(Nc2nc3ccc(C(F)(F)F)cc3s2)nc2cc(C(=O)NCCOCCO)ccc21 [HPP-D, 1-Methyl-2-(6-trifluoromethyl-benzothiazol-2-ylamino)-1H-benzoimidazole-5-carboxylic acid [2-(2-hydroxy-ethoxy)-ethyl]-amide]",Hill slope of DMF dose response curves in Table 2,Bach1 Inhibitor Conc. 0.019 uM,2.23
same,Hill slope of DMF dose response curves in Table 2,Bach1 Inhibitor Conc. 0.039 uM,1.69
same,Hill slope of DMF dose response curves in Table 2,Bach1 Inhibitor Conc. 0.078 uM,0.90
same,Hill slope of DMF dose response curves in Table 2,Bach1 Inhibitor Conc. 0.156 uM,0.23
same,% Cells Positive HMOX,"Cpd. 0.019 uM, DMF 0 uM",19.42%
same,Fold Induction of HMOX,"Cpd. 0.019 uM, DMF 0 uM",2.08 fold
same,% Cells Positive HMOX,"Cpd. 0.019 uM, DMF 0.03 uM",4.94%
same,Fold Induction of HMOX,"Cpd. 0.019 uM, DMF 0.03 uM",1.31 fold
same,% Cells Positive HMOX,"Cpd. 0.019 uM, DMF 0.1 uM",4.52%
same,Fold Induction of HMOX,"Cpd. 0.019 uM, DMF 0.1 uM",1.23 fold
same,% Cells Positive HMOX,"Cpd. 0.019 uM, DMF 0.3 uM",7.63%
same,Fold Induction of HMOX,"Cpd. 0.019 uM, DMF 0.3 uM",1.44 fold
same,% Cells Positive HMOX,"Cpd. 0.019 uM, DMF 1 uM",26.41%
same,Fold Induction of HMOX,"Cpd. 0.019 uM, DMF 1 uM",2.17 fold
same,% Cells Positive HMOX,"Cpd. 0.019 uM, DMF 3 uM",80.18%
same,Fold Induction of HMOX,"Cpd. 0.019 uM, DMF 3 uM",3.55 fold
same,% Cells Positive HMOX,"Cpd. 0.019 uM, DMF 10 uM",96.12%
same,Fold Induction of HMOX,"Cpd. 0.019 uM, DMF 10 uM",5.12 fold
same,% Cells Positive HMOX,"Cpd. 0.019 uM, DMF 30 uM",84.02%
same,Fold Induction of HMOX,"Cpd. 0.019 uM, DMF 30 uM",4.90 fold
same,% Cells Positive HMOX,"Cpd. 0.039 uM, DMF 0 uM",28.04%
same,Fold Induction of HMOX,"Cpd. 0.039 uM, DMF 0 uM",2.51 fold
same,% Cells Positive HMOX,"Cpd. 0.039 uM, DMF 0.03 uM",11.95%
same,Fold Induction of HMOX,"Cpd. 0.039 uM, DMF 0.03 uM",1.81 fold
same,% Cells Positive HMOX,"Cpd. 0.039 uM, DMF 0.1 uM",6.75%
same,Fold Induction of HMOX,"Cpd. 0.039 uM, DMF 0.1 uM",1.52 fold
same,% Cells Positive HMOX,"Cpd. 0.039 uM, DMF 0.3 uM",18.66%
same,Fold Induction of HMOX,"Cpd. 0.039 uM, DMF 0.3 uM",1.81 fold
same,% Cells Positive HMOX,"Cpd. 0.039 uM, DMF 1 uM",38.70%
same,Fold Induction of HMOX,"Cpd. 0.039 uM, DMF 1 uM",2.60 fold
same,% Cells Positive HMOX,"Cpd. 0.039 uM, DMF 3 uM",78.65%
same,Fold Induction of HMOX,"Cpd. 0.039 uM, DMF 3 uM",4.00 fold
same,% Cells Positive HMOX,"Cpd. 0.039 uM, DMF 10 uM",99.17%
same,Fold Induction of HMOX,"Cpd. 0.039 uM, DMF 10 uM",5.64 fold
same,% Cells Positive HMOX,"Cpd. 0.039 uM, DMF 30 uM",91.91%
same,Fold Induction of HMOX,"Cpd. 0.039 uM, DMF 30 uM",5.52 fold
same,% Cells Positive HMOX,"Cpd. 0.078 uM, DMF 0 uM",73.95%
same,Fold Induction of HMOX,"Cpd. 0.078 uM, DMF 0 uM",4.34 fold
same,% Cells Positive HMOX,"Cpd. 0.078 uM, DMF 0.03 uM",33.51%
same,Fold Induction of HMOX,"Cpd. 0.078 uM, DMF 0.03 uM",2.35 fold
same,% Cells Positive HMOX,"Cpd. 0.078 uM, DMF 0.1 uM",44.61%
same,Fold Induction of HMOX,"Cpd. 0.078 uM, DMF 0.1 uM",2.87 fold
same,% Cells Positive HMOX,"Cpd. 0.078 uM, DMF 0.3 uM",61.50%
same,Fold Induction of HMOX,"Cpd. 0.078 uM, DMF 0.3 uM",3.21 fold
same,% Cells Positive HMOX,"Cpd. 0.078 uM, DMF 1 uM",84.85%
same,Fold Induction of HMOX,"Cpd. 0.078 uM, DMF 1 uM",3.83 fold
same,% Cells Positive HMOX,"Cpd. 0.078 uM, DMF 3 uM",90.28%
same,Fold Induction of HMOX,"Cpd. 0.078 uM, DMF 3 uM",4.20 fold
same,% Cells Positive HMOX,"Cpd. 0.078 uM, DMF 10 uM",97.73%
same,Fold Induction of HMOX,"Cpd. 0.078 uM, DMF 10 uM",6.52 fold
same,% Cells Positive HMOX,"Cpd. 0.078 uM, DMF 30 uM",91.28%
same,Fold Induction of HMOX,"Cpd. 0.078 uM, DMF 30 uM",4.80 fold
same,% Cells Positive HMOX,"Cpd. 0.156 uM, DMF 0 uM",96.31%
same,Fold Induction of HMOX,"Cpd. 0.156 uM, DMF 0 uM",6.46 fold
same,% Cells Positive HMOX,"Cpd. 0.156 uM, DMF 0.03 uM",92.53%
same,Fold Induction of HMOX,"Cpd. 0.156 uM, DMF 0.03 uM",5.22 fold
same,% Cells Positive HMOX,"Cpd. 0.156 uM, DMF 0.1 uM",88.16%
same,Fold Induction of HMOX,"Cpd. 0.156 uM, DMF 0.1 uM",4.89 fold
same,% Cells Positive HMOX,"Cpd. 0.156 uM, DMF 0.3 uM",94.48%
same,Fold Induction of HMOX,"Cpd. 0.156 uM, DMF 0.3 uM",5.17 fold
same,% Cells Positive HMOX,"Cpd. 0.156 uM, DMF 1 uM",97.74%
same,Fold Induction of HMOX,"Cpd. 0.156 uM, DMF 1 uM",6.04 fold
same,% Cells Positive HMOX,"Cpd. 0.156 uM, DMF 3 uM",99.20%
same,Fold Induction of HMOX,"Cpd. 0.156 uM, DMF 3 uM",7.69 fold
same,% Cells Positive HMOX,"Cpd. 0.156 uM, DMF 10 uM",100.00%
same,Fold Induction of HMOX,"Cpd. 0.156 uM, DMF 10 uM",7.50 fold
same,% Cells Positive HMOX,"Cpd. 0.156 uM, DMF 30 uM",92.22%
same,Fold Induction of HMOX,"Cpd. 0.156 uM, DMF 30 uM",6.18 fold
same,combination effect in terms of the % HMOX positive cells,,additive or greater than additive
same,change of Hill slope of the DMF dose response curve (FIG. 5),,reduced
"CN(C)C(=O)CNC(=O)c1ccc2c(c1)nc(Nc1nc3ccc(C(F)(F)F)cc3s1)n2C [HPP-C, 1-Methyl-2-(6-trifluoromethyl-benzothiazol-2-ylamino)-1H-benzimidazole-5-carboxylic acid dimethylcarbamoylmethyl-amide]",Hill slope of DMF dose response curves in Table 2,Bach1 Inhibitor Conc. 0.019 uM,2.00
same,Hill slope of DMF dose response curves in Table 2,Bach1 Inhibitor Conc. 0.039 uM,1.80
same,Hill slope of DMF dose response curves in Table 2,Bach1 Inhibitor Conc. 0.078 uM,1.79
same,Hill slope of DMF dose response curves in Table 2,Bach1 Inhibitor Conc. 0.156 uM,0.83
same,% Cells Positive HMOX,"Cpd. 0.019 uM, DMF 0 uM",3.60%
same,Fold Induction of HMOX,"Cpd. 0.019 uM, DMF 0 uM",1.29 fold
same,% Cells Positive HMOX,"Cpd. 0.019 uM, DMF 0.03 uM",1.18%
same,Fold Induction of HMOX,"Cpd. 0.019 uM, DMF 0.03 uM",1.10 fold
same,% Cells Positive HMOX,"Cpd. 0.019 uM, DMF 0.1 uM",2.37%
same,Fold Induction of HMOX,"Cpd. 0.019 uM, DMF 0.1 uM",1.15 fold
same,% Cells Positive HMOX,"Cpd. 0.019 uM, DMF 0.3 uM",6.49%
same,Fold Induction of HMOX,"Cpd. 0.019 uM, DMF 0.3 uM",1.24 fold
same,% Cells Positive HMOX,"Cpd. 0.019 uM, DMF 1 uM",10.18%
same,Fold Induction of HMOX,"Cpd. 0.019 uM, DMF 1 uM",1.68 fold
same,% Cells Positive HMOX,"Cpd. 0.019 uM, DMF 3 uM",51.54%
same,Fold Induction of HMOX,"Cpd. 0.019 uM, DMF 3 uM",2.86 fold
same,% Cells Positive HMOX,"Cpd. 0.019 uM, DMF 10 uM",94.22%
same,Fold Induction of HMOX,"Cpd. 0.019 uM, DMF 10 uM",5.75 fold
same,% Cells Positive HMOX,"Cpd. 0.019 uM, DMF 30 uM",84.20%
same,Fold Induction of HMOX,"Cpd. 0.019 uM, DMF 30 uM",4.65 fold
same,% Cells Positive HMOX,"Cpd. 0.039 uM, DMF 0 uM",2.31%
same,Fold Induction of HMOX,"Cpd. 0.039 uM, DMF 0 uM",1.37 fold
same,% Cells Positive HMOX,"Cpd. 0.039 uM, DMF 0.03 uM",5.74%
same,Fold Induction of HMOX,"Cpd. 0.039 uM, DMF 0.03 uM",1.28 fold
same,% Cells Positive HMOX,"Cpd. 0.039 uM, DMF 0.1 uM",6.82%
same,Fold Induction of HMOX,"Cpd. 0.039 uM, DMF 0.1 uM",1.35 fold
same,% Cells Positive HMOX,"Cpd. 0.039 uM, DMF 0.3 uM",12.76%
same,Fold Induction of HMOX,"Cpd. 0.039 uM, DMF 0.3 uM",1.61 fold
same,% Cells Positive HMOX,"Cpd. 0.039 uM, DMF 1 uM",23.54%
same,Fold Induction of HMOX,"Cpd. 0.039 uM, DMF 1 uM",2.10 fold
same,% Cells Positive HMOX,"Cpd. 0.039 uM, DMF 3 uM",68.03%
same,Fold Induction of HMOX,"Cpd. 0.039 uM, DMF 3 uM",3.01 fold
same,% Cells Positive HMOX,"Cpd. 0.039 uM, DMF 10 uM",94.66%
same,Fold Induction of HMOX,"Cpd. 0.039 uM, DMF 10 uM",5.13 fold
same,% Cells Positive HMOX,"Cpd. 0.039 uM, DMF 30 uM",90.40%
same,Fold Induction of HMOX,"Cpd. 0.039 uM, DMF 30 uM",4.90 fold
same,% Cells Positive HMOX,"Cpd. 0.078 uM, DMF 0 uM",7.12%
same,Fold Induction of HMOX,"Cpd. 0.078 uM, DMF 0 uM",1.59 fold
same,% Cells Positive HMOX,"Cpd. 0.078 uM, DMF 0.03 uM",5.99%
same,Fold Induction of HMOX,"Cpd. 0.078 uM, DMF 0.03 uM",1.37 fold
same,% Cells Positive HMOX,"Cpd. 0.078 uM, DMF 0.1 uM",8.24%
same,Fold Induction of HMOX,"Cpd. 0.078 uM, DMF 0.1 uM",1.48 fold
same,% Cells Positive HMOX,"Cpd. 0.078 uM, DMF 0.3 uM",16.20%
same,Fold Induction of HMOX,"Cpd. 0.078 uM, DMF 0.3 uM",1.73 fold
same,% Cells Positive HMOX,"Cpd. 0.078 uM, DMF 1 uM",37.74%
same,Fold Induction of HMOX,"Cpd. 0.078 uM, DMF 1 uM",2.53 fold
same,% Cells Positive HMOX,"Cpd. 0.078 uM, DMF 3 uM",81.81%
same,Fold Induction of HMOX,"Cpd. 0.078 uM, DMF 3 uM",4.33 fold
same,% Cells Positive HMOX,"Cpd. 0.078 uM, DMF 10 uM",97.16%
same,Fold Induction of HMOX,"Cpd. 0.078 uM, DMF 10 uM",6.46 fold
same,% Cells Positive HMOX,"Cpd. 0.078 uM, DMF 30 uM",96.15%
same,Fold Induction of HMOX,"Cpd. 0.078 uM, DMF 30 uM",6.18 fold
same,% Cells Positive HMOX,"Cpd. 0.156 uM, DMF 0 uM",28.56%
same,Fold Induction of HMOX,"Cpd. 0.156 uM, DMF 0 uM",2.66 fold
same,% Cells Positive HMOX,"Cpd. 0.156 uM, DMF 0.03 uM",22.08%
same,Fold Induction of HMOX,"Cpd. 0.156 uM, DMF 0.03 uM",1.99 fold
same,% Cells Positive HMOX,"Cpd. 0.156 uM, DMF 0.1 uM",33.12%
same,Fold Induction of HMOX,"Cpd. 0.156 uM, DMF 0.1 uM",2.54 fold
same,% Cells Positive HMOX,"Cpd. 0.156 uM, DMF 0.3 uM",49.95%
same,Fold Induction of HMOX,"Cpd. 0.156 uM, DMF 0.3 uM",3.06 fold
same,% Cells Positive HMOX,"Cpd. 0.156 uM, DMF 1 uM",66.67%
same,Fold Induction of HMOX,"Cpd. 0.156 uM, DMF 1 uM",4.08 fold
same,% Cells Positive HMOX,"Cpd. 0.156 uM, DMF 3 uM",88.98%
same,Fold Induction of HMOX,"Cpd. 0.156 uM, DMF 3 uM",4.57 fold
same,% Cells Positive HMOX,"Cpd. 0.156 uM, DMF 10 uM",100.00%
same,Fold Induction of HMOX,"Cpd. 0.156 uM, DMF 10 uM",6.55 fold
same,% Cells Positive HMOX,"Cpd. 0.156 uM, DMF 30 uM",84.03%
same,Fold Induction of HMOX,"Cpd. 0.156 uM, DMF 30 uM",5.49 fold
same,combination effect in terms of the % HMOX positive cells,,additive or greater than additive
same,change of Hill slope of the DMF dose response curve (FIG. 5),,reduced
